ChEMBL document CHEMBL4118139, “Novel naphthyloxy derivatives - Potent histamine H3 receptor ligands. Synthesis and pharmacological evaluation” (Bioorg Med Chem, 2018)
The source made the active and inactive calls. The calls are words filed in the database; no cut-off is given here.

What was measured:
Mus musculus [1] = experiment: Cognition enhancing effect in albino Swiss CD-1 mouse assessed as reversal of scopolamine-induced amnesia at 20 to 30 mg/kg, ip treated 30 mins prior to acquisition trial followed by scopolamine challenge immediately after acquisition trial by passive avoidance test (reference value: 39.31 +/- 4.01 secs); format: functional, organism-based
Histamine H3 receptor [2] = molecular target: T1, Histamine H3 receptor (Homo sapiens, UniProt Q9Y5N1); experiment: Displacement of [3H]N-alpha-methylhistamine from full length human H3 receptor expressed in HEK293 cell membranes after 90 mins
T1 sequence (Q9Y5N1 whole entry): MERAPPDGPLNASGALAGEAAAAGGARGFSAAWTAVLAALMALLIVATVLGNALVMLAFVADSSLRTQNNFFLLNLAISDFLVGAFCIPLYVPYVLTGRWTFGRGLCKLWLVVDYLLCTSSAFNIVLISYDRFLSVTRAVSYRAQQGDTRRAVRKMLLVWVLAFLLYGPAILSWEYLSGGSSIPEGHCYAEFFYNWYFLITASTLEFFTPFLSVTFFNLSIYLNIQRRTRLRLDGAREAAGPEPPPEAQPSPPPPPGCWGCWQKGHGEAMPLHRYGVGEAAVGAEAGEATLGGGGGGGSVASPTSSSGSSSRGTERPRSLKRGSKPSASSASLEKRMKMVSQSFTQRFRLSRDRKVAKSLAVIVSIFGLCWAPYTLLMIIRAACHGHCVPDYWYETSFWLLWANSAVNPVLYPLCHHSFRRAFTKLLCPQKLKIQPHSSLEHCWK

Histamine H3 receptor [3] = molecular target: T1, Histamine H3 receptor; experiment: Antagonist activity at human H3 receptor expressed in HEK293 cells assessed as inhibition of RAMH-induced reduction of forskolin-stimulated cAMP accumulation after 30 mins by Ulight-based TR-FRET assay; format: functional, cell-based
Rattus norvegicus [4] = experiment: Anticonvulsant activity in Sprague-Dawley rat assessed as protection against maximal electroshock-induced seizures at 30 mg/kg, ip after 1 hr; format: functional, organism-based
Mus musculus [5] = experiment: Anticonvulsant activity in albino CF-1 mouse assessed as protection against maximal electroshock-induced seizures at 50 mg/kg, ip after 0.25 hrs; format: functional, organism-based
Mus musculus [6] = experiment: Anticonvulsant activity in albino CF-1 mouse assessed as protection against maximal electroshock-induced seizures at 50 mg/kg, ip after 0.5 hrs; format: functional, organism-based
Mus musculus [7] = experiment: Anticonvulsant activity in albino CF-1 mouse assessed as protection against maximal electroshock-induced seizures at 50 mg/kg, ip after 4 hrs; format: functional, organism-based
Mus musculus [8] = experiment: Neurotoxicity in albino CF-1 mouse assessed as increase in subcutaneous pentylenetetrazole-induced continuous seizures at 50 mg/kg, ip measured after 0.25 hrs; format: toxicity, organism-based; settings: in vivo
Mus musculus [9] = experiment: Neurotoxicity in albino CF-1 mouse assessed as increase in subcutaneous pentylenetetrazole-induced continuous seizures at 50 mg/kg, ip measured after 1 hr; format: toxicity, organism-based; settings: in vivo
Mus musculus [10] = experiment: Neurotoxicity in albino CF-1 mouse assessed as increase in subcutaneous pentylenetetrazole-induced continuous seizures at 50 mg/kg, ip measured after 2 hrs; format: toxicity, organism-based; settings: in vivo
Mus musculus [11] = experiment: Anticonvulsant activity in albino CF-1 mouse assessed as protection against subcutaneous pentylenetetrazole-induced seizures at 50 mg/kg, ip measured after 4 hrs; format: functional, organism-based
Mus musculus [12] = experiment: Neurotoxicity in albino CF-1 mouse at 50 mg/kg, ip after 0.5 hrs by rotarod test; format: toxicity, organism-based; settings: in vivo
Mus musculus [13] = experiment: Neurotoxicity in albino CF-1 mouse at 50 mg/kg, ip after 1 hr by rotarod test; format: toxicity, organism-based; settings: in vivo
Mus musculus [14] = experiment: Neurotoxicity in albino CF-1 mouse at 50 mg/kg, ip after 4 hrs by rotarod test; format: toxicity, organism-based; settings: in vivo
Mus musculus [15] = experiment: Neurotoxicity in albino CF-1 mouse at 30 mg/kg, ip after 0.25 hrs by rotarod test; format: toxicity, organism-based; settings: in vivo
Mus musculus [16] = experiment: Neurotoxicity in albino CF-1 mouse at 30 mg/kg, ip after 4 hrs by rotarod test; format: toxicity, organism-based; settings: in vivo
Rattus norvegicus [17] = experiment: Anticonvulsant activity in Sprague-Dawley rat assessed as protection against maximal electroshock-induced seizures at 30 mg/kg, po after 0.5 hrs; format: functional, organism-based
Rattus norvegicus [18] = experiment: Anticonvulsant activity in Sprague-Dawley rat assessed as protection against maximal electroshock-induced seizures at 65 mg/kg, po after 0.25 hrs; format: functional, organism-based
Mus musculus [19] = experiment: Neurotoxicity in albino CF-1 mouse at 65 mg/kg after 0.25 hrs by rotarod test; format: toxicity, organism-based; settings: in vivo
Mus musculus [20] = experiment: Neurotoxicity in albino CF-1 mouse at 65 mg/kg after 0.5 hrs by rotarod test; format: toxicity, organism-based; settings: in vivo
Mus musculus [21] = experiment: Neurotoxicity in albino CF-1 mouse at 65 mg/kg after 1 hr by rotarod test; format: toxicity, organism-based; settings: in vivo
Mus musculus [22] = experiment: Neurotoxicity in albino CF-1 mouse at 65 mg/kg after 2 hrs by rotarod test; format: toxicity, organism-based; settings: in vivo
Mus musculus [23] = experiment: Neurotoxicity in albino CF-1 mouse at 50 mg/kg after 0.5 hrs by rotarod test; format: toxicity, organism-based; settings: in vivo
Mus musculus [24] = experiment: Neurotoxicity in albino CF-1 mouse at 50 mg/kg after 1 hr by rotarod test; format: toxicity, organism-based; settings: in vivo
Mus musculus [25] = experiment: Anticonvulsant activity in albino CF-1 mouse assessed as protection against 44 mA current-induced seizure at 50 mg/kg, ip after 2 hrs by 6 Hz psychomotor test; format: functional, organism-based
Mus musculus [26] = experiment: Neurotoxicity in albino CF-1 mouse at 50 mg/kg after 0.25 hrs by rotarod test; format: toxicity, organism-based; settings: in vivo
[27] = Neurotoxicity in ip dosed albino CF-1 mouse after 0.25 hrs by rotarod test; format: toxicity, organism-based; settings: in vivo
[28] = Neurotoxicity in ip dosed Sprague-Dawley rat after 0.25 hrs by rotarod test; format: toxicity, organism-based; settings: in vivo
Mus musculus [29] = experiment: Anticonvulsant activity in ip dosed albino CF-1 mouse assessed as protection against maximal electroshock-induced seizures after 1 hr; format: functional; settings: CF-1, ip
Rattus norvegicus [30] = experiment: Anticonvulsant activity in ip dosed Sprague-Dawley rat assessed as protection against maximal electroshock-induced seizures after 0.25 hrs; format: functional
Rattus norvegicus [31] = experiment: Anticonvulsant activity in ip Sprague-Dawley rat assessed as protection against subcutaneous pentylenetetrazole-induced seizures measured after 0.25 hrs; format: functional
Rattus norvegicus [32] = experiment: Anticonvulsant activity in po Sprague-Dawley rat assessed as protection against subcutaneous pentylenetetrazole-induced seizures measured after 1 hr; format: functional
Mus musculus [33] = experiment: Anticonvulsant activity in ip dosed albino CF-1 mouse assessed as protection against 44 mA current-induced seizure after 0.25 hrs by 6 Hz psychomotor test; format: functional; settings: CF-1, ip
[34] = Therapeutic index, ratio of ip dosed Sprague-Dawley rat TD50 to ip dosed Sprague-Dawley rat ED50 for MES assay; format: toxicity, organism-based; settings: in vivo, read-out: TI
[35] = Therapeutic index, ratio of po dosed Sprague-Dawley rat TD50 to po dosed Sprague-Dawley rat ED50 for MES assay; format: toxicity, organism-based; settings: in vivo, read-out: TI
[36] = Therapeutic index, ratio of ip dosed albino CF-1 mouse TD50 to ip dosed albino CF-1 mouse ED50 for 44 mA current-induced 6 Hz psychomotor test; format: toxicity, organism-based; settings: in vivo, read-out: TI
Mus musculus [37] = experiment: Induction of sedative effect in albino Swiss CD-1 mouse at 15 mg/kg, ip; format: organism-based; settings: in vivo
[38] = molecular target: Histamine H1 receptor (Homo sapiens) (UniProt P35367); experiment: Displacement of [3H]-pyrilamine from human histamine H1 receptor expressed in CHO cell membranes at 1 uM relative to chlorpheniramine
Histamine H1 receptor (Homo sapiens), sequence (P35367 whole entry): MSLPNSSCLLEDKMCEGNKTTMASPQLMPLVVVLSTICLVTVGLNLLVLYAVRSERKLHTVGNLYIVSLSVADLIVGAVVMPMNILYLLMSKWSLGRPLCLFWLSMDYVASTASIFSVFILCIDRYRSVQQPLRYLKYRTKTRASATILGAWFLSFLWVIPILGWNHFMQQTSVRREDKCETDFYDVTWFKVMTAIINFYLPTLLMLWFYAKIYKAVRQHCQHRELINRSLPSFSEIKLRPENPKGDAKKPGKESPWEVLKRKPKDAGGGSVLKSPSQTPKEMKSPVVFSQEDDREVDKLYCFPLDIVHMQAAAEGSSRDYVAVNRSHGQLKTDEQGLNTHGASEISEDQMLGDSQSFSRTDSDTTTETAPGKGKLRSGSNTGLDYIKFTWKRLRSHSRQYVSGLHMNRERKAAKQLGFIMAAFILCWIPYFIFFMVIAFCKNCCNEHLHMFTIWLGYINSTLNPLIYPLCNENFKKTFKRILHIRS

[39] = molecular target: D(3) dopamine receptor (Homo sapiens) (UniProt P35462); experiment: Displacement of [3H]-spiperone from human dopamine D3 receptor expressed in CHO cell membranes at 1 uM relative to haloperidol
D(3) dopamine receptor (Homo sapiens), sequence (P35462 whole entry): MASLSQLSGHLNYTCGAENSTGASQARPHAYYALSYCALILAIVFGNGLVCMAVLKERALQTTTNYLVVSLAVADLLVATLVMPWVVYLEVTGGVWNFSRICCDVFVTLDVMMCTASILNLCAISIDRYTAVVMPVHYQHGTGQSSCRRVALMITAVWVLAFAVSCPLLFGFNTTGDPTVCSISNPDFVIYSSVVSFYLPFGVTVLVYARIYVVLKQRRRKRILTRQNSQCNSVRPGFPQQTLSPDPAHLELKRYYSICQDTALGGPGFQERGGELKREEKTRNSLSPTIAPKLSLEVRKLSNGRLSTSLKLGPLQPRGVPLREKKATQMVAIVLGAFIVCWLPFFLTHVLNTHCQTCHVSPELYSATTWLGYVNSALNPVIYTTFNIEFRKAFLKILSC

[40] = molecular target: 5-hydroxytryptamine receptor 2A (Homo sapiens, UniProt P28223); experiment: Displacement of [3H]-ketanserin from human 5-HT2A receptor expressed in CHO cell membranes after 1 hr
5-hydroxytryptamine receptor 2A, sequence (P28223 whole entry): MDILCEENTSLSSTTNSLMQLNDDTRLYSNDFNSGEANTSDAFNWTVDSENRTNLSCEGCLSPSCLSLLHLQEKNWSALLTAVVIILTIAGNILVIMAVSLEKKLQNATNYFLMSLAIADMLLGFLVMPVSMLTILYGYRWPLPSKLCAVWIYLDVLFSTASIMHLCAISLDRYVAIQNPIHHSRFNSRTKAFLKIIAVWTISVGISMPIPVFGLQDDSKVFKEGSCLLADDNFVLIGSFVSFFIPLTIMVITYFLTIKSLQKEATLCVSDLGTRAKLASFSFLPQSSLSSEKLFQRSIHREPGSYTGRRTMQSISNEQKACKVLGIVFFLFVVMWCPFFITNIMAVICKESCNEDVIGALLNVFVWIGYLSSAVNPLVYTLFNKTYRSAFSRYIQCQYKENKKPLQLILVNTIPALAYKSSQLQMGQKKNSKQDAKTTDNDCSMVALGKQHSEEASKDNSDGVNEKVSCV

[41] = molecular target: 5-hydroxytryptamine receptor 6 (Homo sapiens, UniProt P50406); experiment: Displacement of [3H]-LSD from human 5-HT6 receptor expressed in HEK293 cell membranes after 1 hr
5-hydroxytryptamine receptor 6, sequence (P50406 whole entry): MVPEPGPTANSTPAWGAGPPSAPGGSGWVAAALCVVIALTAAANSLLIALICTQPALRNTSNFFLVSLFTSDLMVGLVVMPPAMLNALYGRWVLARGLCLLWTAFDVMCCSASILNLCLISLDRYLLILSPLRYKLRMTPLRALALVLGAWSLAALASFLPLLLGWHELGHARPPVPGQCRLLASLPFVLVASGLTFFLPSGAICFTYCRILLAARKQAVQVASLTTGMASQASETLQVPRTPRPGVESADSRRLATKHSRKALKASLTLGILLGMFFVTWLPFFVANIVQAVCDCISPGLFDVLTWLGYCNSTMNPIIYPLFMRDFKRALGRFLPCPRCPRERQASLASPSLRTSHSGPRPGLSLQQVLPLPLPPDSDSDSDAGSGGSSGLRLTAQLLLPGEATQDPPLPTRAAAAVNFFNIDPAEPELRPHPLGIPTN

HEK293 = experiment: Cytotoxicity against HEK293 cells assessed as reduction in cell viability after 72 hrs by MTS assay; format: cell-based; settings: Homo sapiens, HEK293, 72 h
Salmonella typhimurium [42] = experiment: Mutagenicity in Salmonella typhimurium TA100 assessed as increase in number of revertants at 1 uM after 90 mins by Ames test; format: toxicity, organism-based; settings: salmonella enterica subsp. enterica serovar typhimurium, 1.5 h
Salmonella typhimurium [43] = experiment: Mutagenicity in Salmonella typhimurium TA100 assessed as increase in number of revertants at 10 uM after 90 mins by Ames test; format: toxicity, organism-based; settings: salmonella enterica subsp. enterica serovar typhimurium, 1.5 h

c1ccc2c(OCCCCCN3CCCCC3)cccc2c1
Activity (Mus musculus [1]): Active
Ki (Histamine H3 receptor [2]): 53.9 nM
IC50 (Histamine H3 receptor [3]): 165 nM
inhibition (Histamine H3 receptor [3]): Dose-dependent effect
Activity (Rattus norvegicus [4]): Active
Activity (Mus musculus [5]): Active
Activity (Mus musculus [6]): Active
Activity (Mus musculus [7]): inactive
Activity (Mus musculus [8]): Non-Toxic
Activity (Mus musculus [9]): Non-Toxic
Activity (Mus musculus [10]): Non-Toxic
Activity (Mus musculus [11]): inactive
Activity (Mus musculus [12]): Non-Toxic
Activity (Mus musculus [13]): Non-Toxic
Activity (Mus musculus [14]): Non-Toxic
Activity (Mus musculus [15]): Non-Toxic
Activity (Mus musculus [16]): Non-Toxic
Activity (Rattus norvegicus [17]): inactive
Activity (Rattus norvegicus [18]): inactive
Activity (Mus musculus [19]): Non-Toxic
Activity (Mus musculus [20]): Non-Toxic
Activity (Mus musculus [21]): Non-Toxic
Activity (Mus musculus [22]): Non-Toxic
Activity (Mus musculus [23]): Non-Toxic
Activity (Mus musculus [24]): Non-Toxic
Activity (Mus musculus [25]): inactive
Activity (Mus musculus [26]): Non-Toxic
TD50 at 0.25 h [27]: 94.8 mg/kg
TD50 at 0.25 h [28]: 60.6 mg/kg
ED50 (Mus musculus [29]): 19.2 mg/kg
ED50 (Rattus norvegicus [30]): 17.8 mg/kg
ED50 (Rattus norvegicus [31]): > 60.6 mg/kg
ED50 (Rattus norvegicus [32]): > 250 mg/kg
ED50 (Mus musculus [33]): 57.2 mg/kg
selectivity ratio [34]: 3.4
selectivity ratio [35]: > 6.4
selectivity ratio [36]: 1.6
Activity (Mus musculus [37]): Toxic
inhibition [38]: 17%
inhibition [39]: 12%
Ki [40]: 3900 nM
Ki [41]: 2540 nM
IC50 (HEK293): > 50000 nM
Activity (Salmonella typhimurium [42]): Non-Toxic
Activity (Salmonella typhimurium [43]): Non-Toxic
